Data from patent publication US6004952A, “Micacocidin derivatives” (Shinogi & Co., Ltd., priority 1996, dated 1999).
Values after ≈ are worked out from the molar mass of the structure shown. Like-named read-outs stand apart in the source and are kept apart here.

What was measured:
M. hyopneumoniae = assay: MIC, liquid dilution method, Mycoplasma hyopneumoniae; details: Mesomycoplasma hyopneumoniae
M. gallisepticum [1] = assay: MIC, liquid dilution method, Mycoplasma gallisepticum; details: Mycoplasmoides gallisepticum
[2] = Cytotoxicity to primary chicken kidney culture cells; assay type: cell-based; details: primary chicken kidney cells
[3] = tested on: primary kidney culture cells; assay: as above; assay type: cell-based; details: at the same concentration
Eimeria tenella = assay: Growth inhibition activities to avian coccidium in primary chicken kidney cells; assay type: cell-based; details: for minimal effective concentration: Eimeria tenella
Method: The kidneys of SPF new born chicken was sterilely removed, which was treated with trypsin and the resultant primary kidney cells were cultured in 24-well plate. Monolayer culture after cultured for 3 days was treated simultaneously with compounds adjusted to predetermined concentration and sporozoit obtained by artificial excystation, which was cultured a 40° C. Premature and mature schizonts were observed under microscope, and the growth inhibition activities (suppression rate) for each treatment group were calculated at a proportion of the number of schizonts for the sporozoit-inoculated, compound-untreated control group (100%).

M. pneumoniae = assay: MIC, liquid dilution method, Mycoplasma pneumoniae; details: Mycoplasmoides pneumoniae
mice spleen cells [4] = assay: Suppression of reaction of mice spleen cells to Concanavalin A, in vitro (MTT); assay type: cell-based, BDF1 mice; details: for inhibition at 0.312 µg/mL: 312 ng/ml; for inhibition at 0.625 µg/mL: 625 ng/ml
Method: (§1) To each well of 96 well microtiter plate were added 5×10^5 spleen cells of BDF1 mice suspended in 0.1 ml of RPMI 1640 medium supplemented with 10% bovine fetus serum (supplemented with 2 mM sodium hydrogen carbonate, 50 Units/ml of penicillin, 50 μg/ml of streptomycin, and 5×10^-5 M of 2-mercaptoethanol), and then, 5 μg/ml of Concanavalin A (Con A) or 10 μg/ml of lypopolysaccaride (LPS) and various concentrations of test substance, of which final volume was adjusted to 0.2 ml. Test substances were dissolved in dimethylsulfoxide (DMSO), diluted with RPMI 1640 stated above, and added to the wells so that final concentration of the substances becomes less than 10000 ng/ml. The 96-well microtiter plates were cultured at 37° C. for 3 days in an incubator which was maintained at the humidity of 100%, 5% of carbon dioxide and 95% of air. After cultivation is completed, […] of 6 mg/ml solution of MTT {3-(4,5-dimethylthiazol-2yl)-2,5 diphenyltetrazoliumbromide} (Sigma) is added to each well, which is cultured at 37° C. for […] under the same conditions. After cultivation is completed, formazan formed is dissolved by adding 50 μl of a solution of 20% dodecyl sodium sulfonate (SDS) in 0.02N hydrochloric acid and kept standing at 37° C. for 24 hours. The absorbance (OD) of the formazan which was produced in proportion to the number of alive cells, was determined by using immunoreader equipped with 570 nm filter (see The Journal of Immunological Methods, Vol.65, 55-63, 1983).
(§2) Cell growth inhibition rate and IC50 value were calculated according to the correlation between the concentration and the absorbance for each substance.

Aspergillus fumigatus = assay: Antifungal activity, micro-liquid dilution method, Aspergillus fumigatus; assay type: cell-based, Aspergillus fumigatus strain MA; details: 30° C.; for IC50: Aspergillus fumigatus, 24 h, read-out: Antifungal activities: IC50; for Antifungal activities: IC50: 24 hours
Method: (§3) Antifungal activities of the compounds to Candida albicans (strain Ca-15) and Asperilhm fumigatus (strain MA), representative pathogenic fungi, were determined by micro-liquid dilution method using 96-well microplates. A fungal suspension stored under freezing was adjusted to 1×1 O^5 CFU/ml by medium, of which 100 μl portions were charged into each well. The compound of the present invention was dissolved in dimethylsulfoxide (DMSO). Using the resultant solution, 2-fold dilution series were prepared together with the fungal suspension charged into the wells. YNB medium and RPMI medium were used. After cultured for 24 hours at 30° C., evaluation was performed by detecting the turbidity (wave length: 595 nm) using microplate reader.

mice spleen cells [5] = assay: Suppression of reaction of mice spleen cells to lypopolysaccaride (LPS), in vitro (MTT); assay type: cell-based, BDF1 mice; details: for inhibition at 0.312 µg/mL: 312 ng/ml; for inhibition at 0.625 µg/mL: 625 ng/ml
Method: as §1, §2

Clostridium perfringens = assay: microbe, parasite or virus in culture; assay type: cell-based, C. perfringens ATCC 13124; details: for MIC: Clostridium perfringens, ATCC13124
Serpulina hyodysenteriae = assay: MIC, agar dilution method, anaerobic, Serpulina hyodysenteriae; assay type: cell-based, S. hyodysenteriae ATCC 27164; details: for MIC: Brachyspira hyodysenteriae, ATCC27164
Candida albicans = assay: Antifungal activity, micro-liquid dilution method, Candida albicans; assay type: cell-based, Candida albicans strain Ca-15; details: 30° C.; for IC50: Candida albicans, 24 h, read-out: Antifungal activities: IC50; for Antifungal activities: IC50: 24 hours
Method: as §3

Mycoplasma = assay: MIC to Mycoplasmas (summary in words); assay type: cell-based
E. avium = assay: MIC, agar dilution method, E. avium; details: Enterococcus avium
C. trachmatis = assay: MIC, C. trachmatis; assay type: cell-based; details: C. trachmatis D/UW-3/CX
M. gallisepticum [6] = assay: In vivo evaluation test for M. gallisepticum in chickens (air-sac lesions); details: 6 chickens tested
Branhamella catarrhalis = assay: MIC, Branhamella catarrhalis; assay type: cell-based; details: Moraxella catarrhalis; B. catarrhalis A 25238
Method: Thus, sensitivity-disc medium (Nissui) was used as a sensitivity determination medium, to which about 1 μl of 10^6 CFU/ml of the bacterial suspension was inoculated.

S. aureus = assay: MIC, agar dilution method, S. aureus; assay type: cell-based; details: Staphylococcus aureus, FDA209P; S. aureus FDA 209P
[7] = more than 80% of suppression rate regarded as effective, read-out: Effective dose (growth inhibition)
[8] = read-out: Concentrations showing growth inhibition effects
[9] = Mus musculus, 72 h, Con A, read-out: Suppression rate
[10] = Mus musculus, 72 h, LPS, read-out: Suppression rate

`CCCCCc1cccc(O)c1C1=NC(C2SCC(C(OCOC)C(C)(C)C3=NC(C)(C(=O)OCOC)CS3)N2C)CS1` (stereo not drawn) [Compound 19] gave an MIC (M. hyopneumoniae) of 1.56 µg/mL (≈ 2.39 µM), an MIC (M. gallisepticum [1]) of 6.25 µg/mL (≈ 9.56 µM) and an MCC [2] of 10 µg/mL. For the same compound, the “cytotoxicity to the primary kidney culture cells” value [3] was “did not show any cytotoxicity”, the “growth inhibition activities” value (Eimeria tenella) was “strong growth inhibition activities” and the minimal effective concentration (Eimeria tenella; [7]) was 0.156 µg/mL. For the same compound, the minimal effective concentration (Eimeria tenella; [8]) was 156 µg/mL and the MIC (M. pneumoniae) was 0.39 µg/mL (≈ 0.596 µM).

In the case of `CCCCCc1cccc(O)c1C1=NC(C2SCC(C(O)C(C)(C)C3=NC(C)(C(=O)OCOC)CS3)N2C)CS1` (stereo not drawn) [Compound 20], the MIC (M. hyopneumoniae) was 0.025 µg/mL (≈ 0.041 µM), the “suppression of the reaction to Con A of spleen cells” value (mice spleen cells [4]) was “suppressed” and the inhibition at 0.312 µg/mL (mice spleen cells [4]; [9]) was 0%. It also gave an inhibition at 0.625 µg/mL (mice spleen cells [4]; [9]) of 102%, an inhibition at 1.25 µg/mL (mice spleen cells [4]; Mus musculus, 72 h, Con A, 1250 ng/ml, read-out: Suppression rate) of 101% and an inhibition at 2.5 µg/mL (mice spleen cells [4]; Mus musculus, 72 h, Con A, 2500 ng/ml, read-out: Suppression rate) of 101%. The IC50 (mice spleen cells [4]; Mus musculus, Con A) was 0.506 µg/mL (≈ 0.83 µM), the IC50 (Aspergillus fumigatus; RPMI medium) was greater than 100 µg/mL and the IC50 (Aspergillus fumigatus; YNB medium) was greater than 100 µg/mL. The “suppression of the reaction to LPS of spleen cells” value (mice spleen cells [5]) was “suppressed”, the inhibition at 0.312 µg/mL (mice spleen cells [5]; [10]) was 2.1% and the inhibition at 0.625 µg/mL (mice spleen cells [5]; [10]) was 98.8%. It also gave an inhibition at 1.25 µg/mL (mice spleen cells [5]; Mus musculus, 72 h, LPS, 1250 ng/ml, read-out: Suppression rate) of 98.2%, an inhibition at 2.5 µg/mL (mice spleen cells [5]; Mus musculus, 72 h, LPS, 2500 ng/ml, read-out: Suppression rate) of 96.3% and an IC50 (mice spleen cells [5]; Mus musculus, LPS) of 0.38 µg/mL (≈ 0.623 µM). For the same compound, the “activity to Clostridium perflingens” value (Clostridium perfringens) was “showed the activity”, the MIC (Clostridium perfringens) was 3.13 µg/mL (≈ 5.13 µM) and the MIC (M. gallisepticum [1]) was 0.1 µg/mL (≈ 0.164 µM). The MCC [2] was greater than 10 µg/mL, the minimal effective concentration (Eimeria tenella; [7]) was 0.625 µg/mL and the MIC (M. pneumoniae) was no more than 0.00625 µg/mL. The “activity to Serpulina (Treponema) hyodysenteriae” value (Serpulina hyodysenteriae) was “showed the activity”, the MIC (Serpulina hyodysenteriae) was 1.56 µg/mL (≈ 2.56 µM) and the IC50 (Candida albicans; RPMI medium) was 3.2 µg/mL (≈ 5.25 µM). The IC50 (Candida albicans; YNB medium) was greater than 100 µg/mL and the “MICs to Mycoplasmas” value (Mycoplasma) was “low MICs”.

In the case of `CCCCCc1cccc(O)c1C1=NC(C2SCC(C(O)C(C)(C)C3=NC(C)(C(=O)O)CS3)N2C)CS1` (stereo not drawn) [Compound 9], the MIC (M. hyopneumoniae) was 0.025 µg/mL (≈ 0.0442 µM), the “Antifungal activities: IC50” value (Aspergillus fumigatus; RPMI medium) was 0.2 µg/mL and the “Antifungal activities: IC50” value (Aspergillus fumigatus; YNB medium) was 3.2 µg/mL. It also gave an MIC (E. avium) of 1.56 µg/mL (≈ 2.76 µM), an MIC (M. gallisepticum [1]) of 0.2 µg/mL (≈ 0.353 µM) and an MIC (C. trachmatis) of 16 µg/mL (≈ 28.3 µM). For the same compound, the “air-sac lesions (the number of chickens): (+) slight” value (shortened to “air-sac lesions … (+) slight”) (M. gallisepticum [6]; 25 mg/kg × 1, orally) was 0, the “air-sac lesions (the number of chickens): (++-+++) moderate to severe” value (from here on “air-sac lesions … to severe”) (M. gallisepticum [6]; 25 mg/kg × 1, orally) was 2 and the “air-sac lesions (the number of chickens): (-) non” value (“air-sac lesions … (-) non” below) (M. gallisepticum [6]; 25 mg/kg × 1, orally) was 4. The “number of chickens having lesions” value (M. gallisepticum [6]; 25 mg/kg × 1, orally) was 2, the “air-sac lesions … (+) slight” value (M. gallisepticum [6]; 50 mg/kg × 1, orally) was 1 and the “air-sac lesions … to severe” value (M. gallisepticum [6]; 50 mg/kg × 1, orally) was 1. The “air-sac lesions … (-) non” value (M. gallisepticum [6]; 50 mg/kg × 1, orally) was 4, the “number of chickens having lesions” value (M. gallisepticum [6]; 50 mg/kg × 1, orally) was 2 and the “air-sac lesions … (+) slight” value (M. gallisepticum [6]; 100 mg/kg × 1, orally) was 0. For the same compound, the “air-sac lesions … to severe” value (M. gallisepticum [6]; 100 mg/kg × 1, orally) was 1, the “air-sac lesions … (-) non” value (M. gallisepticum [6]; 100 mg/kg × 1, orally) was 5 and the “number of chickens having lesions” value (M. gallisepticum [6]; 100 mg/kg × 1, orally) was 1. The MIC (Branhamella catarrhalis) was 3.13 µg/mL (≈ 5.53 µM), the MIC (M. pneumoniae) was 0.00625 µg/mL (≈ 0.011 µM) and the “Antifungal activities: IC50” value (Candida albicans; RPMI medium) was 1.6 µg/mL. For the same compound, the “Antifungal activities: IC50” value (Candida albicans; YNB medium) was 6.3 µg/mL.

With `CCCCCc1cccc(OC)c1C1=NC(C2SCC(C(O)C(C)(C)C3=NC(C)(C(=O)O)CS3)N2C)CS1` (stereo not drawn) [Compound 7] the MIC (S. aureus) was 1.56 µg/mL (≈ 2.69 µM), the MIC (M. hyopneumoniae) was 0.1 µg/mL (≈ 0.172 µM) and the “suppression of the reaction to Con A of spleen cells” value (mice spleen cells [4]) was “suppressed”. For the same compound, the inhibition at 0.039 µg/mL (mice spleen cells [4]; Mus musculus, 72 h, Con A, 39 ng/ml, read-out: Suppression rate) was 10%, the inhibition at 0.078 µg/mL (mice spleen cells [4]; Mus musculus, 72 h, Con A, 78 ng/ml, read-out: Suppression rate) was 16.5% and the inhibition at 0.156 µg/mL (mice spleen cells [4]; Mus musculus, 72 h, Con A, 156 ng/ml, read-out: Suppression rate) was 60.7%. For the same compound, the inhibition at 0.312 µg/mL (mice spleen cells [4]; [9]) was 98%, the inhibition at 0.625 µg/mL (mice spleen cells [4]; [9]) was 101% and the IC50 (mice spleen cells [4]; Mus musculus, Con A) was 0.129 µg/mL (≈ 0.222 µM). The “suppression of the reaction to LPS of spleen cells” value (mice spleen cells [5]) was “suppressed”, the inhibition at 0.039 µg/mL (mice spleen cells [5]; Mus musculus, 72 h, LPS, 39 ng/ml, read-out: Suppression rate) was 17.2% and the inhibition at 0.078 µg/mL (mice spleen cells [5]; Mus musculus, 72 h, LPS, 78 ng/ml, read-out: Suppression rate) was 42.5%. It also gave an inhibition at 0.156 µg/mL (mice spleen cells [5]; Mus musculus, 72 h, LPS, 156 ng/ml, read-out: Suppression rate) of 80%, an inhibition at 0.312 µg/mL (mice spleen cells [5]; [10]) of 98.6% and an inhibition at 0.625 µg/mL (mice spleen cells [5]; [10]) of 102%. For the same compound, the IC50 (mice spleen cells [5]; Mus musculus, LPS) was 0.084 µg/mL (≈ 0.145 µM), the “activity to Clostridium perflingens” value (Clostridium perfringens) was “showed the activity” and the MIC (Clostridium perfringens) was 0.1 µg/mL (≈ 0.172 µM). For the same compound, the MIC (M. gallisepticum [1]) was 1.56 µg/mL (≈ 2.69 µM), the MCC [2] was 10 µg/mL and the “cytotoxicity to the primary kidney culture cells” value [3] was “did not show any cytotoxicity”. For the same compound, the “growth inhibition activities” value (Eimeria tenella) was “strong growth inhibition activities”, the minimal effective concentration (Eimeria tenella; [7]) was 0.156 µg/mL and the minimal effective concentration (Eimeria tenella; [8]) was 156 µg/mL. For the same compound, the MIC (M. pneumoniae) was 0.1 µg/mL (≈ 0.172 µM), the “activity to Serpulina (Treponema) hyodysenteriae” value (Serpulina hyodysenteriae) was “showed the activity” and the MIC (Serpulina hyodysenteriae) was 1.56 µg/mL (≈ 2.69 µM). The “MICs to Mycoplasmas” value (Mycoplasma) was “low MICs”.
